Test results from the supplement of paper PMC5579334.
± gives the standard deviation of the averaged measurements.

How the values were obtained:
ST8814 [1] = assay: % inhibition of CellTiter-Glo viability at highest tested concentration (72 h), relative to DMSO and benzethonium chloride controls; higher = more inhibition
Procedure, shortened: (§1)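 MPNST cell lines and primary human Schwann cells (750–1000 cells per well) went into 384-well plates preprinted with each compound at five concentrations in 10-fold steps. Plates were incubated 72 h at 37 °C, 5% CO2. Viability was read as CellTiter-Glo ATP luminescence, scaled between vehicle and positive-control wells, with duplicates averaged where present. Percent inhibition is at the top concentration; drug sensitivity score and relative IC50 (censored at top concentration) come from four-parameter logistic fits.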

S1507-2 [2] = assay: as above
Procedure, shortened: as §1

S462 [3] = assay: as above
Procedure, shortened: as §1

[4] = test system: HSC2 (primary human Schwann cells); assay: as above
Procedure, shortened: as §1

[5] = test system: HSC1 (primary human Schwann cells); assay: as above
Procedure, shortened: as §1

STS26T [6] = assay: as above
Procedure, shortened: as §1

ST8814 [7] = assay: drug sensitivity score (DSS, CellTox-Green cytotoxicity, 72 h) (DSS (dimensionless)); higher = more cytotoxic; extreme values may be limits of the assay
Procedure, shortened: (§2)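 MPNST cell lines and primary human Schwann cells were incubated 72 h at 37 °C in 384-well plates holding five 10-fold compound dilutions. CellTox-Green was added before seeding at a final 1:1000 dilution and reported fluorescence from DNA released by disrupted cells. Signals were scaled to vehicle and positive-control wells, and cultures failing plate quality control were dropped. Drug sensitivity score and relative IC50 come from four-parameter logistic fits, with IC50 censored at the top concentration.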

S1507-2 [8] = assay: as above
Procedure, shortened: as §2

[9] = test system: HSC2 (primary human Schwann cells); assay: as above
Procedure, shortened: as §2

[10] = test system: HSC1 (primary human Schwann cells); assay: as above
Procedure, shortened: as §2

STS26T [11] = assay: as above
Procedure, shortened: as §2

ST8814 [12] = assay: drug sensitivity score (DSS, CellTiter-Glo viability, 72 h) (DSS (dimensionless)); higher = more sensitive; extreme values may be limits of the assay
Procedure, shortened: as §1

S1507-2 [13] = assay: as above
Procedure, shortened: as §1

S462 [14] = assay: as above
Procedure, shortened: as §1

[15] = test system: HSC2 (primary human Schwann cells); assay: as above
Procedure, shortened: as §1

[16] = test system: HSC1 (primary human Schwann cells); assay: as above
Procedure, shortened: as §1

STS26T [17] = assay: as above
Procedure, shortened: as §1

Compound	% inhibition (ST8814 [1])	% inhibition (S1507-2 [2])	% inhibition (S462 [3])	% inhibition [4]	% inhibition [5]	% inhibition (STS26T [6])	drug sensitivity score (ST8814 [7])	drug sensitivity score (S1507-2 [8])	drug sensitivity score [9]	drug sensitivity score [10]	drug sensitivity score (STS26T [11])	drug sensitivity score (ST8814 [12])	drug sensitivity score (S1507-2 [13])	drug sensitivity score (S462 [14])	drug sensitivity score [15]	drug sensitivity score [16]	drug sensitivity score (STS26T [17])
N[C@@H](Cc1ccc(N(CCCl)CCCl)cc1)C(=O)O [Melphalan aq] (max concentration tested 12500 nM)	3.22%	6.15 ± 8.2%	5.6 ± 3%	6.78%	18.7%	2.1%	0	0	0	0	0	0	0	0	0	0.445	0
Cc1ccc([N+](=O)[O-])cc1S(=O)(=O)N(C)/N=C/c1cnc2ccc(Br)cn12 [PIK-75] (max concentration tested 10000 nM)	89.1%	97.021 ± 0.018%	101.9 ± 0.78%	95.4%	91.1%	102%	5.5	8.99 ± 6.5	9.74	7.46	14.6	17.7	17.9 ± 1.9	21.2 ± 0.91	21.1	19.7	22.3
CCCCC/C=C/C=C1/C(=O)C=C[C@@H]1C/C=C\CCCC(=O)O [15D-PGJ2] (max concentration tested 800 nM)	-9.15%	4.46 ± 11%	0.683 ± 8.3%	0.683%	2.13%	-0.85%	0	0	0	0	0	0	0.113 ± 0.16	0	0	0	0
Oc1ncc(N(CCCl)CCCl)c(O)n1 [Uracil mustard] (max concentration tested 10000 nM)	10.8%	-1.65 ± 8.9%	-1.32 ± 0.75%	5.29%	5.98%	1.52%	0	0	0	0	0	0	0	0	0	0	0
CCCC(CCC)C(=O)O [Valproic acid aq] (max concentration tested 1000000 nM)	44.4%	20.7 ± 3.2%	31.3 ± 17%	59%	68.2%	28.3%	0.307	0	0	0	0	3.83	1.59 ± 0.097	2.44 ± 0.31	4.4	4.34	1.5
COC1=C2C[C@@H](C)C[C@H](OC)[C@H](O)[C@@H](C)/C=C(\C)[C@H](OC(N)=O)[C@@H](OC)/C=C\C=C(/C)C(=O)NC(=CC1=O)C2=O [Geldanamycin] (max concentration tested 10000 nM)	90.6%	97.21 ± 0.53%	98.4 ± 1.8%	94.7%	96.7%	94.2%	2.65	5.24 ± 1.8	20.2	20.4	8.09	12	8.65 ± 0.52	15.8 ± 0.19	16.7	16.7	12.3
CC[C@@]1(O)C(=O)OCc2c1cc1n(c2=O)Cc2cc3ccccc3nc2-1 [Camptotechin] (max concentration tested 5000 nM)	100%	100 ± 0.18%	103.58 ± 0.083%	102%	101%	102%	30.9	10.95 ± 0.027	17.7	20.8	13.2	26.9	19.2 ± 0.92	26.995 ± 0.022	23.8	22.7	22
Cn1nnc2c(C(N)=O)ncn2c1=O [Temozolomide] (max concentration tested 10000 nM)	11.9%	9.8 ± 9.4%	2.61 ± 0.65%	2.06%	8.86%	8.32%	0	0	0	0	0	0.0241	0.17 ± 0.24	0	0	0	0
COCC1(CO)C(=O)C2CCN1CC2 (stereo not drawn) [Prima-1 Met] (max concentration tested 10000 nM)	8.31%	6.31 ± 9.8%	19.1 ± 8.4%	32.4%	26.3%	14.6%	0	7.59 ± 11	0	0	0	0	2.75 ± 3.9	1.58 ± 1.1	2.14	1.87	0.507
